Test results: doi:10.1101/2023.12.19.572336, “Structure of an insect gustatory receptor” (bioRxiv, 2023)

Molecular target: T1, Bombyx mori Gr9 (BmGr9) (Bombyx mori, UniProt B3GTD7)
T1 construct: N-terminally TwinStrep-tagged BmGr9, homotetramer; residues 232–269 and the N and C termini (15 and 5 residues) disordered
T1 sequence (B3GTD7 1-449): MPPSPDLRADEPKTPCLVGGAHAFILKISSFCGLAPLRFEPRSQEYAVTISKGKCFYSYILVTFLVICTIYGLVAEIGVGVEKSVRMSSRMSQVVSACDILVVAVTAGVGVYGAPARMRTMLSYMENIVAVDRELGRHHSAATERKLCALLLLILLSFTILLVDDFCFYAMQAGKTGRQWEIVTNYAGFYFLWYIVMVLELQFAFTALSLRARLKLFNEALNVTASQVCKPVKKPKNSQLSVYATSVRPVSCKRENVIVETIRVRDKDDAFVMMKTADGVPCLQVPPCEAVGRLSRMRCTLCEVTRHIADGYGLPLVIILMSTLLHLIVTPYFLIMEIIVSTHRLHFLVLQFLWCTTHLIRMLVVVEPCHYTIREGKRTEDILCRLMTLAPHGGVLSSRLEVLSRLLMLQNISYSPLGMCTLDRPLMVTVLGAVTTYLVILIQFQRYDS
Test: cryo-EM of protein purified with […] D-fructose ([…] Å); EC50 by two-electrode voltage clamp in Xenopus oocytes
Type: cell-based

EC50: 22 mM
SMILES: OCC1(O)OC[C@@H](O)[C@@H](O)[C@@H]1O (stereo partly drawn) [D-fructose]
